Experimental data as given in the SangsterLogP compilation.
Residues, ends and D or L forms follow the SMILES beside them. *: point of attachment. NHtBu = CC(C)(C)N*

Test: method code SF-AS, from DOI: 10.1135/cccc19881862
Settings: pH 3.4

`O=C(O)C(OCc1ccc(Cl)cc1)c1ccccc1` (stereo not given) showed a logD of 2.6.

Same assay, conditions: pH 3.5

In order of falling logD:
1. CC(CC(=O)O)CC(=O)c1ccc(-c2ccc(-c3ccccc3)cc2)cc1 (stereo not given)  3.82
2. CC(CC(=O)c1ccc(-c2ccc(-c3ccc(F)cc3F)cc2)cc1)C(=O)O (stereo not given)  3.78
3. CC(CC(=O)c1ccc(-c2ccc(-c3ccccc3)cc2)cc1)C(=O)O (stereo not given)  3.4

Test: not given
Settings: not given

In order of rising logP:
1. CCc1onc(C)c1N=C1C=C(O)C(=O)c2ccccc21  2
2. CCC1ON=C(C)C1N=C1C=C(OC)C(=O)c2ccccc21 (stereo not given)  2.43
3. CCCc1onc(C)c1N=C1C=C(O)C(=O)c2ccccc21  2.52
4. CCc1onc(C)c1N=C1C=C(Nc2c(C)noc2CC)C(=O)c2ccccc21  2.71

Test: not given
Settings: not given
Remark: another data set of the same source

In order of rising logP:
1. c1nnn(C23CC4CC(CC(C4)C2)C3)n1  2.95
2. c1ccc2c(c1)nnn2C12CC3CC1CCC2C3 (stereo not given)  3.52
3. c1ccc2nn(C34CC5CC(CC(C5)C3)C4)cc2c1  3.68
4. c1ccc(C23CC4CC(CC(C4)C2)C3)cc1  5.55

Test: method code SF-RC, from DOI: 10.1016/s0969-8043(00)00269-4, PMID: 11200881
Settings: pH 7.4

In order of rising logD:
1. CCOC(=O)c1ncn2c1CN(C)C(=O)c1cc(F)ccc1-2  1.26
2. CN1CCc2c(cc(O)c(O)c2Cl)C(c2ccccc2)C1 (stereo not given)  1.4
3. COc1ccc(C2CNC(=O)C2)cc1OC1CCCC1 (stereo not given)  2.17
4. CN1CCc2cc(Cl)c(O)cc2[C@@H](c2ccccc2)C1  2.87

Test: not given
Settings: not given
Remark: another data set of the same source

In order of falling logP:
1. Clc1ccc(-c2c(Cl)ccc(Cl)c2Cl)c(Cl)c1  6.31
2. Clc1cccc(-c2cccc(Cl)c2Cl)c1  5.57
3. Clc1ccccc1-c1cccc(Cl)c1Cl  5.31
4. Clc1cccc(-c2ccccc2Cl)c1  5.02

Test: method code SF-GLC, from DOI: 10.1016/0048-3575(76)90072-9
Settings: not given

In order of falling logP:
1. CCOC(=O)CN(C(=O)CCl)c1c(CC)cccc1CC  3.17
2. CCOC(=O)CN(C(=O)CCl)c1ccccc1CC  2.57
3. CCOC(=O)CN(C(=O)CCl)c1ccccc1Cl  2.3
4. CCOC(=O)CN(C(=O)CCl)c1ccccc1OC  1.78

Test: method code SF-AS, from PMID: 578762
Settings: pH 5.9

`CCOC(=O)C=C1NC(=O)C(N2CCCCC2)S1` (stereo in doubt) gave a logD of 2.3.

Same assay, conditions: pH 7.4

In order of rising logD:
1. CCOC(=O)/C=C1\SC(N(CC)CC)C(=O)N1C (stereo not given)  2.2
2. CCOC(=O)/C=C1/SC(N2CCCCC2)C(=O)N1CC (stereo not given)  2.65
3. CCCN1C(=O)C(N2CCCCC2)S/C1=C\C(=O)OCC (stereo not given)  2.93

Test: method code SF-AS, from DOI: 10.1080/10826076.2011.619030
Settings: not given

In order of rising logP:
1. CC1(C)OC2C(CO)OC(n3ccc(=O)[nH]c3=O)C2O1 (stereo not given)  -0.47
2. CC1(C)OC2C(CO)OC(n3ccc(=O)n(C(=O)c4ccccc4)c3=O)C2O1 (stereo not given)  0.95
3. CC1(C)OC2C(CO)OC(n3ccc(=O)n(Cc4ccccc4)c3=O)C2O1 (stereo not given)  1.82
4. O=C(OCc1ccccc1)OC1C(CO)OC(n2ccc(=O)[nH]c2=O)C1OC(=O)OCc1ccccc1 (stereo not given)  2.96

Test: method code SF-AS, from DOI: 10.1016/j.ejmech.2015.02.036, PMID: 25728022
Settings: pH 7.4

In order of falling logD:
1. C=CCn1c(C)nc2cc(Nc3nc(N4CCCC4)nc4[nH]cnc34)ccc21  2.53
2. C=CCn1c(C)nc2cc(Nc3nc(N4CCCCC4)nc4[nH]cnc34)ccc21  1.55
3. CCCCn1c(C)nc2cc(Nc3nc(N4CCCC4)nc4[nH]cnc34)ccc21  1.36
4. CCCCn1c(C)nc2cc(Nc3nc(Cl)nc4[nH]cnc34)ccc21  1.28

Test: not given
Settings: not given
Remark: another data set of the same source

In order of falling logP:
1. CCN1CC(C)n2c(nc3ccccc3c2=O)C1C (stereo not given)  1.58
2. CCCN1CC(C)n2c(nc3ccccc3c2=O)C1C (stereo not given)  1.45
3. CCCN1CCn2c(nc3ccccc3c2=O)C1C (stereo not given)  1.07
4. CC1c2nc3ccccc3c(=O)n2C(C)CN1C (stereo not given)  0.44

Test: method code SF-RC, from DOI: 10.1021/jm00238a003, PMID: 1120999
Settings: pH 7.0

In order of falling logD:
1. CCCCCCCC(=O)OC[C@H]1O[C@@H](n2ccc(N)nc2=O)[C@@H](O)[C@@H]1O  1.6
2. Nc1ccn(C2OC(COC(=O)C3CCCCC3)C(O)C2O)c(=O)n1 (stereo not given)  0.8
3. CC(C)C(=O)OCC1OC(n2ccc(N)nc2=O)C(O)C1O (stereo not given)  0.3
4. CC(C)(C)C(=O)OC[C@H]1O[C@@H](n2ccc(N)nc2=O)[C@@H](O)[C@@H]1O  0.1

Test: method code SF, from DOI: 10.1021/jm5019252, PMID: 25906180
Settings: pH 7.4

In order of falling logD:
1. COC(=O)c1cc(OC(=O)N(c2ccccc2)c2ccccc2)ccc1O  4.46
2. CN(C(=O)Oc1ccc(O)c(C(=O)NCc2ccccc2)c1)c1ccccc1  4.19
3. COC(=O)c1cc(OC(=O)N(C)c2ccccc2)ccc1O  3.13
4. CN(C(=O)Oc1ccc(O)c(C(=O)NCc2cccnc2)c1)c1ccccc1  2.95

Test: not given
Settings: not given
Remark: another data set of the same source

In order of falling logP:
1. COc1ccc(-c2cc(C#N)c(N3CCOCC3)nc2C)cc1  4.4
2. Cc1nc(N2CCOCC2)c(C#N)cc1-c1ccccc1  3.65
3. COc1ccc(-c2cc(C#N)c(Cl)nc2C)cc1  3.38
4. Cc1nc(Cl)c(C#N)cc1-c1ccccc1  3.24

Test: not given
Settings: not given
Remark: another data set of the same source

In order of falling logP:
1. O=C(Oc1ccc2ccccc2c1)C1OC(O)C(O)C(O)C1O (stereo not given)  1.39
2. O=C(Oc1ccc(Cl)cc1)C1OC(O)C(O)C(O)C1O (stereo not given)  0.45
3. O=C(Oc1ccc(F)cc1)C1OC(O)C(O)C(O)C1O (stereo not given)  -0.42
4. O=C(Oc1ccc([N+](=O)[O-])cc1)C1OC(O)C(O)C(O)C1O (stereo not given)  -0.45

Test: not given
Settings: not given
Remark: another data set of the same source

With `C=CCN1CCc2cccc(Cl)c2CC1` the logP was 3.3.

Test: method code SF-HPLC, from DOI: 10.1002/ps.2780310207
Settings: not given

In order of rising logP:
1. Fc1ccc(C2(Cn3cncn3)CC2)cc1  1.54
2. CCCC(Cn1cncn1)c1ccc(F)cc1 (stereo not given)  2.01
3. CCCC(Cc1ccccn1)c1ccc(F)cc1 (stereo not given)  2.61
4. CC(C)(Cc1ccccn1)c1ccc(F)cc1  2.97

Test: not given
Settings: not given
Remark: another data set of the same source

In order of falling logP:
1. COc1ccc(CCN2CCC(Nc3nc4ccccc4n3Cc3ccc(F)cc3)CC2)cc1  5.7
2. CNC1CCC(c2ccc(Cl)c(Cl)c2)c2ccccc21 (stereo not given)  4.3
3. CCCCOc1ccc(OCCCN2CCOCC2)cc1  3.56
4. NS(=O)(=O)c1cc2c(cc1Cl)N=C(CSCc1ccccc1)NS2(=O)=O  1.73

Test: method code SF-AS, from DOI: 10.1039/p29900001191
Settings: pH 12.0

In order of falling logD:
1. c1ccc(-c2cc(-c3ccccc3)c(NCCN3CCOCC3)nn2)cc1  3.38
2. CCc1cc(-c2ccccc2)nnc1NCCN1CCOCC1  2.53
3. Cc1cc(-c2ccccc2)nnc1NCCN1CCOCC1  2.03
4. NC(=O)c1cc(-c2ccccc2)nnc1NCCN1CCOCC1  1.86

Test: method code SF-RC, from DOI: 10.1023/a:1015846100305, PMID: 1788157
Settings: pH 7.3

In order of falling logD:
1. CC(=O)N[C@@H](C)C(=O)N[C@@H](Cc1ccccc1)C(=O)N[C@@H](C)C(=O)NC(C)(C)C (Ac-Ala-Phe-Ala-NHtBu)  1.01
2. CC(=O)NC(C)C(=O)N1CCCC1C(=O)NC(C)C(=O)NC(C)(C)C (stereo not drawn) (Ac-Ala-Pro-Ala-NHtBu; configuration not given here)  -0.39
3. CC(=O)NC(C)C(=O)NC(Cc1c[nH]cn1)C(=O)NC(C)C(=O)NC(C)(C)C (stereo not drawn) (Ac-Ala-His-Ala-NHtBu; configuration not given here)  -0.48
4. CC(=O)N[C@@H](C)C(=O)N[C@@H](C)C(=O)N[C@@H](C)C(=O)NC(C)(C)C  -0.51

Test: not given
Settings: not given
Remark: another data set of the same source

In order of falling logP:
1. O=C1CN=C(c2ccc(Br)cc2)c2cc(Br)ccc2N1  4.08
2. O=C1CN=C(c2ccc(Cl)cc2)c2cc(Br)ccc2N1  3.78
3. O=C1CN=C(c2cccc(Cl)c2)c2ccc(Br)cc2N1  3.63
4. O=C1CN=C(c2ccccc2Br)c2cc(Br)ccc2N1  3.3

Test: method code SF-AS, from DOI: 10.1021/jm00085a014, PMID: 1560439
Settings: pH 7.4

In order of falling logD:
1. CCc1[nH]c(=O)n(C(=O)c2ccccc2)c1C(=O)c1ccc(-n2ccnc2C)cc1  1.96
2. CCC(=O)n1c(C(=O)c2ccc(-n3ccnc3C)cc2)c(CC)[nH]c1=O  1.72
3. CCc1[nH]c(=O)n(C(C)=O)c1C(=O)c1ccc(-n2ccnc2C)cc1  1.42
4. CCc1[nH]c(=O)[nH]c1C(=O)c1ccc(-n2ccnc2C)cc1  0.85

Test: method code SF, from DOI: 10.1097/00004424-199009001-00048
Settings: pH 7.4

In order of rising logD:
1. O=C(NCCO)c1c(I)c(C(=O)NCCO)c(I)c(N(CC(O)CO)C(=O)C(O)CO)c1I (stereo not given)  -2.64
2. O=C(NCC(O)CO)c1c(I)c(N(CCO)C(=O)CO)c(I)c(N(CCO)C(=O)CO)c1I (stereo not given)  -2.55
3. C[C@H](O)C(=O)Nc1c(I)c(C(=O)NC(CO)CO)c(I)c(C(=O)NC(CO)CO)c1I  -2.42
4. COCC(=O)Nc1c(I)c(C(=O)NCC(O)CO)c(I)c(C(=O)N(C)CC(O)CO)c1I (stereo not given)  -2.05
